Source: patent publication US6011000A, “Compositions for the treatment of blood disorders” (priority 1995, dated 2000)

What was measured:
Friend leukemia cells = details: cited from earlier work
fetal globin synthesis = details: cited from earlier work
[1] = tested on: fetal globin synthesis in tissue culture cells; details: cited from earlier work
[2] = tested on: fetal reticulocyte production; details: cited from earlier work
[3] = tested on: erythroid cells (peripheral blood); assay: Erythroid cell viability by fluorescent staining (Calcein-AM), FIG. 2; type: cell-based, human; details: 0.5 mM, vs untreated controls
Description: FIG. 2 Peripheral blood cell viability after incubation with arginine butyrate, dihydrocinnamic acid, phenoxyacetic acid and butyric acid ethyl ester.
Compositions were tested for the ability to directly stimulate erythroid cell growth. Cell growth stimulation is a useful property for an agent to be used to treat anemias and distinguishes such agents from the cytotoxic drugs currently being tested for treatment of hemoglobinopathies. Cell viability analyses were performed using fluorescent staining to detect living cells. Cells were in log phase of growth in 6-well dishes when used in proliferation assays. For enumeration of living cells, wells were washed once with medium to remove nonadherent or dead cells. Remaining live cells were labeled with 2 μM 2',7'-bis-(carboxyethyl)-5-(and 6)-carboxy-fluorescein acetoxy-methyl ester (Calcein-AM) (Molecular Probes; Eugene, Oreg.) for 20 minutes at 37° C. and washed once. Fluorescence intensity of live cells was read on a CytoFluor 2300 Fluorescence Plate Scanner (Millipore; Bedford, Mass.) at excitation and emission wavelengths of 485 and 530 nm, respectively. The fluorescence intensity of a well was proportional to the number of living cells in the well. Background fluorescence was measured separately for each plate and subtracted from all readings. Each experiment was performed in triplicate or quadruplicate. The standard deviation (SD) of repetitive readings was less than 30% of the mean. Results are depicted in FIG. 2.

human erythroid cells = assay: DNA fragmentation by flow cytometry (degradation of DNA); type: cell-based
Description: Such activities might limit their utility for treatment of anemias such as occur in thalassemia, but alternatively would be useful for anticancer effects. To determine cell viability, human erythroid cells were cultured in the presence and absence of these compounds for 4 days and the amount of DNA fragmentation which occurred was measured.
Flow cytometric determination of DNA profiles and DNA fragmentation were determined. Cytometric analysis was performed with a FACScan (Becton Dickenson Instruments; Columbia, Md.). The data analysis and display were performed using the Cell-Fit software program. Approximately 0.5×10^6 cells were washed twice with PBS and resuspended in 1 ml of 1% sodium citrate, 0.1% Triton X-100 and 50 μg of propidium iodide/ml. Resulting permeabilized cells were kept in the dark at 4° C. overnight before DNA profile or DNA fragmentation analysis (Table 4).

[4] = Hemoglobin and red blood cell levels in a patient with thalassemia intermedia; type: in vivo, human; design: Hgb-A1 / Hgb-A2 / HbF: unit not given here; details: for RBC: 50 mg/kg 3 days/week
Description: This patient received isobutyramide at 50 mg/kg for 3 days/week over the course of the study.

MCF-7 cells = assay: Growth/viability of human mammary carcinoma cells; type: cell-based; details: MCF7, 96 h, 1.0 mM, 4 days, read-out: growth decrease of MCF-7 cells
Description: Human mammary carcinoma cells (MCF-7) were cultured alone (controls) and with arginine butyrate or isobutyramide for 4 days. Viability was assayed by FACS after incubation with a fluorescent dye taken up by viable cells (FIG. 6). Growth was decreased by 50% with isobutyramide at 1.0 mM, about 60% with arginine butyrate at 0.5 mM, and greater than 90% with arginine butyrate at 1.0 mM.

[5] = tested on: system A transport (K562 cells and nucleated erythroblasts from fetal liver); assay: Effects on system A amino acid transport (3H-MAIB uptake); type: cell-based, human
Description: Inhibition of nutrient uptake is undesirable for treatment of anemias. Methyl aminoisobutyric acid (MAIB) labeled with tritium (^3 H) is normally taken up by system A amino acid transport. Cold (unlabeled) compounds were added to cultures containing ^3 H-MAIB and incubated for 1 hour. Cells were harvested and the amount of ^3 H taken up by cells was quantitated by scintillation counting.

[6] = tested on: γ-globin promoter (-61 construct, K562 cells); type: cell-based, human
Text: Functional assay underscores the important role of FRE-γ1 in γ-globin gene expression in K562 cells. To ascertain whether the FRE elements of the γ-globin promoter that were identified by in vivo footprinting were indeed involved in arginine butyrate inducibility for γ-globin gene expression, a series of 5' deletion constructs of the γ-globin promoter, extending from -256 to -61, were constructed and linked them to the NEO gene. Activity of the NEO gene of these constructs, in response to arginine butyrate treatment, was examined by transfecting these reporters into K562 cells. In K562 cells, a construct driven by 256 bp of promoter was able to direct NEO activity expression, resulting in colony formation. […] Deletion to position -61 reduced promoter activity to 33-40% of the activity seen with the -256 bp construct.

fetal globin production = details: cited from earlier work
globin expression = details: cited from earlier work
[7] = tested on: fetal globin expression in K562 human erythroleukemia cells; details: cited from earlier work
[8] = tested on: γ globin mRNA of bone marrow cells; details: cited from earlier work
[9] = tested on: cultured human erythrocytes; details: cited from earlier work
[10] = 50 mg/kg, 3 days/week, four month study

For `CC(=O)O` [acetate], the hemoglobin synthesis (Friend leukemia cells) is listed as “induced hemoglobin synthesis”, the “duration of positive effects” value (fetal globin synthesis) is listed as “positive effects could only be maintained for very short periods of time” and the “erythrocyte precursor populations and fetal globin synthesis” value (fetal globin synthesis) is listed as “increased both erythrocyte precursor populations and also fetal globin synthesis”.

In the case of “GM-CSF: granulocyte/macrophage-colony stimulating factor (GM-CSF)”, the fetal globin synthesis [1] is given as “increase fetal globin synthesis in tissue culture cells”.

In the case of `Nc1ccn([C@@H]2O[C@H](CO)[C@@H](O)[C@@H]2O)c(=O)n1` [AraC, cytosine arabinoside], the fetal reticulocyte production [2] is given as “induces fetal reticulocyte production”.

In the case of `CC(C)C(N)=O` [IBT, isobutyramide], the “erythroid cell growth and proliferation” value [3] is reported as “either had no effect or stimulated erythroid cell growth and proliferation”, the “proportion of degraded DNA” value (human erythroid cells; 1.0 mM to 2.0 mM, untreated 26%) is reported as 44% and the “Degraded DNA” value (human erythroid cells; 2.0 mM, 4 days, control 26%, 22%) is reported as 34%. The “DNA fragmentation / cell viability / DNA integrity” value (human erythroid cells; DNA fragmentation assays) was “decrease cell viability”, the “rise in hematocrit (Hct)” value [4, 10] was 5.8% and the “rise in hemoglobin (Hgb)” value [4, 10] was 1.6 g/dL. The “rise in reticulocytes (Retics)” value [4, 10] was “about 50%”, the “rise in total red blood cells (RBC)” value [4, 10] was ~10^6 /μl and the “total red blood cells (RBC) at end” value ([4]; 50 mg/kg, 3 days/week, four month study, from 6.48) was 7.3 10^6 cells/μl. For the same molecule, the “hemoglobin (Hgb) at end” value ([4]; 50 mg/kg, 3 days/week, four month study, from 10.1) was 11.7 g/dL, the “hematocrit (Hct) at end” value ([4]; 50 mg/kg, 3 days/week, four month study, from 31.0%) was 36.9% and the HbF ([4]; Day 1) was 4.4. For the same molecule, the Hct ([4]; Day 1) was 31.1%, the Hgb ([4]; Day 1) was 10.1 g/dL and the Hgb-A1 ([4]; Day 1) was 89.2. For the same molecule, the Hgb-A2 ([4]; Day 1) was 6.4, the RBC ([4]; Day 1) was 6.48 10^6 cells/μl and the HbF ([4]; Day 8) was 6.4. The Hct ([4]; Day 8) was 36.2%, the Hgb ([4]; Day 8) was 10.8 g/dL and the Hgb-A1 ([4]; Day 8) was 89.2. The Hgb-A2 ([4]; Day 8) was 6.2, the RBC ([4]; Day 8) was 6.76 10^6 cells/μl and the HbF ([4]; Day 15) was 4.4. The Hct ([4]; Day 15) was 37.0%, the Hgb ([4]; Day 15) was 11.1 g/dL and the Hgb-A1 ([4]; Day 15) was 89.2. For the same molecule, the Hgb-A2 ([4]; Day 15) was 6.4, the RBC ([4]; Day 15) was 6.89 10^6 cells/μl and the HbF ([4]; Day 22) was 0.4. For the same molecule, the Hct ([4]; Day 22) was 34.1%, the Hgb ([4]; Day 22) was 10.3 g/dL and the Hgb-A1 ([4]; Day 22) was 89.1. The Hgb-A2 ([4]; Day 22) was 6.9, the RBC ([4]; Day 22) was 6.28 10^6 cells/μl and the HbF ([4]; Day 29) was 4.4. It also gave a Hct ([4]; Day 29) of 36.3%, a Hgb ([4]; Day 29) of 10.9 g/dL and a Hgb-A1 ([4]; Day 29) of 88.6. The Hgb-A2 ([4]; Day 29) was 7.0, the RBC ([4]; Day 29) was 6.61 10^6 cells/μl and the HbF ([4]; Day 36) was 0.4. The Hct ([4]; Day 36) was 33.8%, the Hgb ([4]; Day 36) was 10.4 g/dL and the Hgb-A1 ([4]; Day 36) was 88.4. For the same molecule, the Hgb-A2 ([4]; Day 36) was 7.6, the RBC ([4]; Day 36) was 6.28 10^6 cells/μl and the HbF ([4]; Day 43) was 8.4. The Hct ([4]; Day 43) was 36.2%, the Hgb ([4]; Day 43) was 11.0 g/dL and the Hgb-A1 ([4]; Day 43) was 88.7. The Hgb-A2 ([4]; Day 43) was 6.5, the RBC ([4]; Day 43) was 6.38 10^6 cells/μl and the HbF ([4]; Day 55) was 5.4. The Hct ([4]; Day 55) was 34.0%, the Hgb ([4]; Day 55) was 11.4 g/dL and the RBC ([4]; Day 55) was 6.68 10^6 cells/μl. For the same molecule, the HbF ([4]; Day 68) was 1.4, the Hct ([4]; Day 68) was 36.4% and the Hgb ([4]; Day 68) was 11.5 g/dL. The RBC ([4]; Day 68) was 6.68 10^6 cells/μl, the Hct ([4]; Day 96) was 36.9% and the Hgb ([4]; Day 96) was 11.7 g/dL. The RBC ([4]; Day 96) was 7.33 10^6 cells/μl, the “fetal globin (HbF)” value ([4]; four month study) was “lack of increased fetal globin (HbF)” and the Hemoglobin-A1 level ([4]; throughout the study) was “approximately constant”. The hemoglobin-A2 level ([4]; throughout the study) was “approximately constant”, the inhibition at 1000 µM (MCF-7 cells) was 50% and the “system A (neutral) amino acid transport” value [5] was “inhibited the neutral amino acid transport mechanism”. For the same molecule, the “induction of construct activity” value [6] was 2.5-4 fold and the “stimulation of fetal globin production” value (fetal globin production) was “effective in stimulating fetal globin production”.

For `NC(=O)NO` [Hydroxyurea], the “specificity to fetal globin” value (globin expression) is given as “did not appear to be very specific to fetal globin”.

In the case of `CCC(=O)O` [propionate], the hemoglobin synthesis (Friend leukemia cells) is listed as “induced hemoglobin synthesis” and the “increase of fetal globin expression” value [7] is listed as “most effective”.

In the case of `Nc1ncn([C@@H]2O[C@H](CO)[C@@H](O)[C@H]2O)c(=O)n1` [AZA, 5-azacytidine], the “increase in γ globin mRNA of bone marrow cells” value ([8]; continuous intravenous) is listed as “five- to seven-fold increase” and the “population of stem cells in the bone marrow” value ([8]; in vivo) is listed as “significant alterations in the population of stem cells in the bone marrow”.

B1: activin: Activin, sometimes referred to as erythroid differentiating factor (EDF) (protein, UniProt P08476 311-426, looked up)
Inhibin beta A chain: GLECDGKVNICCKKQFFVSFKDIGWNDWIIAPSGYHANYCEGECPSHIAGTSGSSLSFHSTVINHYRMRGHSPFANLKSCCVPTKLRPMSMLYYDDGQNIIKKDIQNMIVEECGCS
modifications: Inhibin beta A chain
In the case of B1, the hemoglobin accumulation [9] is given as “induced hemoglobin accumulation in cultured human erythrocytes”.

B2: inhibin: Inhibin, a disulfide linked hormone of two subunits (protein, UniProt P05111 233-366; P08476 311-426, looked up)
Inhibin alpha chain: STPLMSWPWSPSALRLLQRPPEEPAAHANCHRVALNISFQELGWERWIVYPPSFIFHYCHGGCGLHIPPNLSLPVPGAPPTPAQPYSLLPGAQPCCAALPGTMRPLHVRTTSDGGYSFKYETVPNLLTQHCACI
Inhibin beta A chain: GLECDGKVNICCKKQFFVSFKDIGWNDWIIAPSGYHANYCEGECPSHIAGTSGSSLSFHSTVINHYRMRGHSPFANLKSCCVPTKLRPMSMLYYDDGQNIIKKDIQNMIVEECGCS
For B2, the hemoglobin accumulation [9] is listed as “induced hemoglobin accumulation in cultured human erythrocytes”.
